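96-well plates; 48 h exposure; 5 concentrations. Endpoints by linear interpolation between flanking doses. Not reached: highest tested concentration assigned. GI50 marks 50% less growth. TGI is the concentration that stops growth completely.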
Tests used:
Test in all cases: NCI anticancer screen, dose series, 48 h
SF-539 CNS = test system: SF-539 CNS
UACC-62 melanoma = test system: UACC-62 melanoma
HOP-92 NSCLC = test system: HOP-92 NSCLC
CAKI-1 renal = test system: CAKI-1 renal
NCI-H460 lung = test system: NCI-H460 lung
MDA-MB-231 breast = test system: MDA-MB-231 breast

Question: `COc1cc2cc(Oc3ccc(NC(=O)Nc4ccc(F)c(C(F)(F)F)c4)cc3)c(C)nc2cc1OCCN1CCCCC1` was tested. Which GI50 (SF-539 CNS) did it give?
Answer: 1.68 µM

Question: What about the TGI (SF-539 CNS) of the same molecule?
Answer: 3.08 µM

Question: What about the GI50 (UACC-62 melanoma) of the same molecule?
Answer: 1.71 µM

Question: And the TGI (UACC-62 melanoma)?
Answer: 3.19 µM

Question: What about the GI50 (HOP-92 NSCLC) of the same molecule?
Answer: 1.52 µM

Question: And the TGI (HOP-92 NSCLC)?
Answer: 3.02 µM

Question: What about the GI50 (CAKI-1 renal) of the same molecule?
Answer: 1.47 µM

Question: And the TGI (CAKI-1 renal)?
Answer: 2.78 µM

Question: What about the GI50 (NCI-H460 lung) of the same molecule?
Answer: 1.89 µM

Question: What about the TGI (NCI-H460 lung) of the same molecule?
Answer: 3.6 µM

Question: And the GI50 (MDA-MB-231 breast)?
Answer: 1.67 µM

Question: What about the TGI (MDA-MB-231 breast) of the same molecule?
Answer: 3.19 µM

— PubChem BioAssay (NCI)
